# According to publication PMC7730235, “Discovery of a Novel Class of Covalent Dual Inhibitors Targeting the Protein Kinases BMX and BTK” (International Journal of Molecular Sciences, 2020):
# What was measured:
# BMX = biological target: T1, BMX (Homo sapiens, UniProt P51813); conditions: cited from earlier work
# T1 construct: purchased Reaction Biology Corporation
# T1 sequence (P51813 1-675): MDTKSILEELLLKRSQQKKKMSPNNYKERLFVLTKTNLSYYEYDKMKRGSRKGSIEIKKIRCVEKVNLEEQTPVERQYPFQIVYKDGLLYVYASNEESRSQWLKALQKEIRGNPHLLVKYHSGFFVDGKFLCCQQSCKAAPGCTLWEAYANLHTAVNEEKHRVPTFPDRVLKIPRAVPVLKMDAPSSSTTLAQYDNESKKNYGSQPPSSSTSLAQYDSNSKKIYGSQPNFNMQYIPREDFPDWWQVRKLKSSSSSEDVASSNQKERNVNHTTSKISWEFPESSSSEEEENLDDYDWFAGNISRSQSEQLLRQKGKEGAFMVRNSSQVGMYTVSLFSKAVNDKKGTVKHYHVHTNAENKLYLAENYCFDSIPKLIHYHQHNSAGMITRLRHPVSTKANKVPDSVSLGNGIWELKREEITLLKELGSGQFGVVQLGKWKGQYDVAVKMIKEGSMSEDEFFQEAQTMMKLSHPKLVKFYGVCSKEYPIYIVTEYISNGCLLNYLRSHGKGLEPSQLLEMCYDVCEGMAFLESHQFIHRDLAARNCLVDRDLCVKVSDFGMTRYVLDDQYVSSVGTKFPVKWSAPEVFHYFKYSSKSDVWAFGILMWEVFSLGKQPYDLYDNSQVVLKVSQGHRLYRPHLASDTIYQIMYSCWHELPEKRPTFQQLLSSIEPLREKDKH
# glutathione (GSH) = assay: Glutathione reactivity / stability against GSH; format: physicochemical; conditions: glutathione (GSH) in PBS buffer, pH 7.4, 5 mM GSH, read-out: half-life (t1/2) against glutathione (converted)
# Method: A total of 5 µL of a 10 mM compound stock solution in DMSO were added to 5 µL of a 4 mM Indoprofen solution in PBS as internal standard. The mixture was diluted with PBS buffer to a total volume of 1 mL of component A. Additionally, a freshly prepared solution of 10 mM GSH in PBS buffer was used as component B. A total of 250 µL of each component was mixed and immediately subjected to HPLC analysis for t^0 measurement. The probes were stored at 40 °C in between the respective injections. t1/2 was determined by plotting natural logarithm of AUC/AUC0 against time.
# MKK7 = biological target: T2, MKK7 (Homo sapiens, UniProt O14733); assay: Radiometric kinase assay (Reaction Biology HotSpot); format: biochemical; conditions: read-out: Residual Activity @ 200 nM, MKK7
# T2 construct: purchased Reaction Biology Corporation
# T2 sequence (O14733 1-419): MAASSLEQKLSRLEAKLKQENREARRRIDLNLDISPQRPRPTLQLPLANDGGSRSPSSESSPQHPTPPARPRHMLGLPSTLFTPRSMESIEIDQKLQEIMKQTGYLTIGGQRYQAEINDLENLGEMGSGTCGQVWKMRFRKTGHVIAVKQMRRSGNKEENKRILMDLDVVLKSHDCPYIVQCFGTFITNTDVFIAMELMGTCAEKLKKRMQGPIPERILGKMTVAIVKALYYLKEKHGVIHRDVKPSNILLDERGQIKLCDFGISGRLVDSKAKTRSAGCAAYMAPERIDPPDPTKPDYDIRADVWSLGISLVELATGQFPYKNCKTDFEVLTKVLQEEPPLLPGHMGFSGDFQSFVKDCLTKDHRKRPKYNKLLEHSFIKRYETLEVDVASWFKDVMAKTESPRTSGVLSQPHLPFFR
# Method: (§1) If not mentioned differently, in vitro profiling of compounds was performed at Reaction Biology Corporation using the HotSpot™ assay platform.
# ITK = biological target: T3, ITK (Homo sapiens, UniProt Q08881); assay: as above; format: biochemical; conditions: read-out: Residual Activity @ 200 nM, ITK
# T3 construct: purchased Reaction Biology Corporation
# T3 sequence (Q08881 1-620): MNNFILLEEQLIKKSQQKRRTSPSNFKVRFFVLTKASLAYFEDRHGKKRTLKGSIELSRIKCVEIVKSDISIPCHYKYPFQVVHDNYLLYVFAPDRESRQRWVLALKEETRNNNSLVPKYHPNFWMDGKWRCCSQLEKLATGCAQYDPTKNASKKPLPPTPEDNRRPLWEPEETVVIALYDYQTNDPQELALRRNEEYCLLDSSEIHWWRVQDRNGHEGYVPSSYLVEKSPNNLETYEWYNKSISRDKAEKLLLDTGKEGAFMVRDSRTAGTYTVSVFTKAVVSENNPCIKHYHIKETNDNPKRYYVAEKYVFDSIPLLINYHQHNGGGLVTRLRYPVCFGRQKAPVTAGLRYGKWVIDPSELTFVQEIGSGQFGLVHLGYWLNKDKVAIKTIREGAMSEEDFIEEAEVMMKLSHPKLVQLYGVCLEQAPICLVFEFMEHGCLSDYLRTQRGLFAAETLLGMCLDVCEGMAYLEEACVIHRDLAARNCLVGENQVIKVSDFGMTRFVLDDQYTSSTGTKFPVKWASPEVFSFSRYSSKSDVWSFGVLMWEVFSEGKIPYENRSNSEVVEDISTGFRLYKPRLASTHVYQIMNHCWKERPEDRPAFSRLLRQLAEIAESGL
# Method: as §1
# EGFR = biological target: T4, EGFR (Homo sapiens, UniProt P00533); assay: as above; format: biochemical; conditions: radiometric HotSpot, five-dose singlicate, [ATP] = 10 μM
# T4 construct: purchased Reaction Biology Corporation
# T4 sequence (P00533 25-1210): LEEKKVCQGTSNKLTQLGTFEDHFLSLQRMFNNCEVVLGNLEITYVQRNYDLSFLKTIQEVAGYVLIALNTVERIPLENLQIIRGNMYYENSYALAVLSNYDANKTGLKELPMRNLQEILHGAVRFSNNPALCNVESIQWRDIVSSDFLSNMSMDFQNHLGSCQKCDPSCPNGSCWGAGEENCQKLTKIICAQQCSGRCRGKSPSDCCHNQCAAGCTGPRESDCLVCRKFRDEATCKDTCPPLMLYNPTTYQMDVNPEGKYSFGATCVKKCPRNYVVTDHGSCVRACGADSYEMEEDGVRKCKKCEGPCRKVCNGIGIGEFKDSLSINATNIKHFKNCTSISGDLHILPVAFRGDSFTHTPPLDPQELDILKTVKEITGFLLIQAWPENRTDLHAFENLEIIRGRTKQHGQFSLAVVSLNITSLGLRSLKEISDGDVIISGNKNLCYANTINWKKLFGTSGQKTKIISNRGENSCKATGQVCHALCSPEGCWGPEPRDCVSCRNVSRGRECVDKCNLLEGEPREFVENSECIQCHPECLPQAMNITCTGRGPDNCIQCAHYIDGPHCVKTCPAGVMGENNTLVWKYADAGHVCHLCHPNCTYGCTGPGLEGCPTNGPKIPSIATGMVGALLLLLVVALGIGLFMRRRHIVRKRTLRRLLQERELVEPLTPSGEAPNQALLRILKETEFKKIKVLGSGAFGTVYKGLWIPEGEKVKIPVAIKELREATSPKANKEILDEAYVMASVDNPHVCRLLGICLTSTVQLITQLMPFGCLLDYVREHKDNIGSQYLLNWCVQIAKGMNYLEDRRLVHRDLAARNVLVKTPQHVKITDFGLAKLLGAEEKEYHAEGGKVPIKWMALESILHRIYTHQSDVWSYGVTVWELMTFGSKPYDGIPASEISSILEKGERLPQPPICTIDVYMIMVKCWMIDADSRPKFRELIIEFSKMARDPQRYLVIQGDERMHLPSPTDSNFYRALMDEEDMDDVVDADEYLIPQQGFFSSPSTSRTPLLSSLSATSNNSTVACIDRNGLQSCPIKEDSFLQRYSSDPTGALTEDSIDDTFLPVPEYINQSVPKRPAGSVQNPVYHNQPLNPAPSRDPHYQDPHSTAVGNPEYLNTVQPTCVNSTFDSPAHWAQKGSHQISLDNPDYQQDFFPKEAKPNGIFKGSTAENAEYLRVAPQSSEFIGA
# Method: as §1
# HER2 = biological target: T5, HER2 (Homo sapiens, UniProt P04626); assay: as above; format: biochemical; conditions: radiometric HotSpot, five-dose singlicate, [ATP] = 10 μM
# T5 construct: purchased Reaction Biology Corporation
# T5 sequence (P04626 23-1255): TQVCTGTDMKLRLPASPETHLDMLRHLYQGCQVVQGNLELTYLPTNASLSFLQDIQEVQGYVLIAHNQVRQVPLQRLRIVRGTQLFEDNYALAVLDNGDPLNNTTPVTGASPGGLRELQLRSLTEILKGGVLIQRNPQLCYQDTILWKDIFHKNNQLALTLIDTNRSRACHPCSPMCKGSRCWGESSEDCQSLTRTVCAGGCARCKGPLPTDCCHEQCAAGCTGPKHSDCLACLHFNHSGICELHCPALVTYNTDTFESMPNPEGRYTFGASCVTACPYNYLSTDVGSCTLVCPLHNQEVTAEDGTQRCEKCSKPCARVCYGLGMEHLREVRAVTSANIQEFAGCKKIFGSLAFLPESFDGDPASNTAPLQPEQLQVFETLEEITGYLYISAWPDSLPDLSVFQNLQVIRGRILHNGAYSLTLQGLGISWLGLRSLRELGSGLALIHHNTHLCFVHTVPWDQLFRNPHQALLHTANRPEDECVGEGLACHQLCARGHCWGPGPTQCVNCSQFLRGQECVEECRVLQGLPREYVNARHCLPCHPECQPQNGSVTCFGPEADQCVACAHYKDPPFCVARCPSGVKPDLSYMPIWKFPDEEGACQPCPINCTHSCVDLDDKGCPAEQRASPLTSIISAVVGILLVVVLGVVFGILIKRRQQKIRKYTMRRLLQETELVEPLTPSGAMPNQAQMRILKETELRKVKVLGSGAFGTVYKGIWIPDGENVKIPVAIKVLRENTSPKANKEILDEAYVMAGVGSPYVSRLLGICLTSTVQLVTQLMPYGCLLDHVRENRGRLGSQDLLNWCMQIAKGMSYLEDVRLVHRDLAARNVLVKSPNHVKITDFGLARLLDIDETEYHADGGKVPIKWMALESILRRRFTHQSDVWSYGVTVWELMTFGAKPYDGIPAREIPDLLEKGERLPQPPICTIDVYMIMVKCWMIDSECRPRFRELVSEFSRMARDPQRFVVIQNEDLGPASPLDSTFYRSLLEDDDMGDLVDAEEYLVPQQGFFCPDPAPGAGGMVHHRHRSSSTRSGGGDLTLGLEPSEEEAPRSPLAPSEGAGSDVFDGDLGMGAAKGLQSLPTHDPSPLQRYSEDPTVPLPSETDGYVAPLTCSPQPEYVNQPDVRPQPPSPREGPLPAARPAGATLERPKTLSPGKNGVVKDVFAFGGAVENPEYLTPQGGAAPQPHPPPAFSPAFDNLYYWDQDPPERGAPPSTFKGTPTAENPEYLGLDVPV
# Method: as §1
# TXK = biological target: T6, TXK (Homo sapiens, UniProt P42681); assay: as above; format: biochemical; conditions: radiometric HotSpot, five-dose singlicate, [ATP] = 10 μM
# T6 construct: purchased Reaction Biology Corporation
# T6 sequence (P42681 1-527): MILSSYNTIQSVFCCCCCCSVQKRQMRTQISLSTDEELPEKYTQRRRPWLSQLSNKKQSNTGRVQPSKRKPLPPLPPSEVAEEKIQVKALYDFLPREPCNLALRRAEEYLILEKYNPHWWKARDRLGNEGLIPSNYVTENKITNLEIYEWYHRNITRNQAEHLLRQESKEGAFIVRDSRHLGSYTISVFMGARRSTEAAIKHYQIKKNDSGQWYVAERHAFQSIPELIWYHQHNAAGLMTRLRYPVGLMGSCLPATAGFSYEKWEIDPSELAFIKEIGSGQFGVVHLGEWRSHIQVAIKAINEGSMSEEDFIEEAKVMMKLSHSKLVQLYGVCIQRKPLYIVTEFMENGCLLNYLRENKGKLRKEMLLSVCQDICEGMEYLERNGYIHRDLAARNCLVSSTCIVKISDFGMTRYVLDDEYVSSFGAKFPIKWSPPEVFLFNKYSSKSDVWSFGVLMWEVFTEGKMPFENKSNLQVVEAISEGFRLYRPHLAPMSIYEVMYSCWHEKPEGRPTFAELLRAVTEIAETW
# Method: as §1
# BLK = biological target: T7, BLK (Homo sapiens, UniProt P51451); assay: as above; format: biochemical; conditions: radiometric HotSpot, five-dose singlicate, [ATP] = 10 μM
# T7 construct: purchased Reaction Biology Corporation
# T7 sequence (P51451 whole entry): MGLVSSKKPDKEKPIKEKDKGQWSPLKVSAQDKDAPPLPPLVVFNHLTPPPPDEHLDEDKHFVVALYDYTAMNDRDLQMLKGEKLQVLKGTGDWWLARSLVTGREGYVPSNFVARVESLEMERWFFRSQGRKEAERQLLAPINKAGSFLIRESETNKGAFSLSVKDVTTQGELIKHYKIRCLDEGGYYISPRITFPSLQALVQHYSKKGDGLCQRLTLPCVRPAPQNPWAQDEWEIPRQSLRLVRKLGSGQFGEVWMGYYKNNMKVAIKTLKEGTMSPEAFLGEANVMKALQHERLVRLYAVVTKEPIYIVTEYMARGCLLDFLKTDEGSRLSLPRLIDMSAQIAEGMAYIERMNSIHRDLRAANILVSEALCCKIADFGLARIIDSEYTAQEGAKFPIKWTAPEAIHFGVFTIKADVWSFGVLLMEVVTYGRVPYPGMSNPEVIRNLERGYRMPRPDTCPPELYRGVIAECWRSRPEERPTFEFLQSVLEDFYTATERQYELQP
# Method: as §1
# HER4 = biological target: T8, HER4 (Homo sapiens, UniProt Q15303); assay: as above; format: biochemical; conditions: radiometric HotSpot, five-dose singlicate, [ATP] = 10 μM
# T8 construct: purchased Reaction Biology Corporation
# T8 sequence (Q15303 26-1308): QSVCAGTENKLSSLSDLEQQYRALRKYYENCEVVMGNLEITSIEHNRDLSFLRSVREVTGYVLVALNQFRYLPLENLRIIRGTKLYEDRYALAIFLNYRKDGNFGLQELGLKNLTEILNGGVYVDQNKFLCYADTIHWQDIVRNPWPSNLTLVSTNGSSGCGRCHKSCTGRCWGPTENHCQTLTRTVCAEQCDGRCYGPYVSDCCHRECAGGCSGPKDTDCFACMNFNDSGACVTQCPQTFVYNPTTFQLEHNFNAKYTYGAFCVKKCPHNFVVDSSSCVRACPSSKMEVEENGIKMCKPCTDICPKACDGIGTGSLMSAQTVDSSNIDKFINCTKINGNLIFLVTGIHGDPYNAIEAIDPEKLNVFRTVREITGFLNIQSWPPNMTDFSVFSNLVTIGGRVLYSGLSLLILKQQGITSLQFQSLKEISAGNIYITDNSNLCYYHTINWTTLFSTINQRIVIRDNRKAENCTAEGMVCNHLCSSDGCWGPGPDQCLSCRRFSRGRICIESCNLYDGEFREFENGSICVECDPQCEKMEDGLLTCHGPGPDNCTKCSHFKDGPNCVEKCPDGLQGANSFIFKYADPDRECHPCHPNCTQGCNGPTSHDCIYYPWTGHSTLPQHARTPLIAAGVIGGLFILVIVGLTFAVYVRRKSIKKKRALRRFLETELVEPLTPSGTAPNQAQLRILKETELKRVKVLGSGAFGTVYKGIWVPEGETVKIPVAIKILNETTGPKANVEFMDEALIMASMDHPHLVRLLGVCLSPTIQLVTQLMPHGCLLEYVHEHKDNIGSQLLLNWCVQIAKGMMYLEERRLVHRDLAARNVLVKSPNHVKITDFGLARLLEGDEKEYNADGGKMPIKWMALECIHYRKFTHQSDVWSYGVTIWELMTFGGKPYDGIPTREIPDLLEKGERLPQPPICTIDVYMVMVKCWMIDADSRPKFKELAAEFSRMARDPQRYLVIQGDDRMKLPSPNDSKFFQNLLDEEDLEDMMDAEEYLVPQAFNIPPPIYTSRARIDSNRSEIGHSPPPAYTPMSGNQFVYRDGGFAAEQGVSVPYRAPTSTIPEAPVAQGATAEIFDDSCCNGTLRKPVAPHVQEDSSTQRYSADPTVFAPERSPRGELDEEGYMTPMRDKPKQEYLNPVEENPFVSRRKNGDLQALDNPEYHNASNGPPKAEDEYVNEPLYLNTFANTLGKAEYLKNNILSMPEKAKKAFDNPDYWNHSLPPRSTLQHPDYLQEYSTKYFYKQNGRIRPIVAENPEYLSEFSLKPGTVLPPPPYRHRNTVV
# Method: as §1
# JAK3 = biological target: T9, JAK3 (Homo sapiens, UniProt P52333); assay: as above; format: biochemical
# T9 construct: purchased Reaction Biology Corporation
# T9 sequence (P52333 1-1124): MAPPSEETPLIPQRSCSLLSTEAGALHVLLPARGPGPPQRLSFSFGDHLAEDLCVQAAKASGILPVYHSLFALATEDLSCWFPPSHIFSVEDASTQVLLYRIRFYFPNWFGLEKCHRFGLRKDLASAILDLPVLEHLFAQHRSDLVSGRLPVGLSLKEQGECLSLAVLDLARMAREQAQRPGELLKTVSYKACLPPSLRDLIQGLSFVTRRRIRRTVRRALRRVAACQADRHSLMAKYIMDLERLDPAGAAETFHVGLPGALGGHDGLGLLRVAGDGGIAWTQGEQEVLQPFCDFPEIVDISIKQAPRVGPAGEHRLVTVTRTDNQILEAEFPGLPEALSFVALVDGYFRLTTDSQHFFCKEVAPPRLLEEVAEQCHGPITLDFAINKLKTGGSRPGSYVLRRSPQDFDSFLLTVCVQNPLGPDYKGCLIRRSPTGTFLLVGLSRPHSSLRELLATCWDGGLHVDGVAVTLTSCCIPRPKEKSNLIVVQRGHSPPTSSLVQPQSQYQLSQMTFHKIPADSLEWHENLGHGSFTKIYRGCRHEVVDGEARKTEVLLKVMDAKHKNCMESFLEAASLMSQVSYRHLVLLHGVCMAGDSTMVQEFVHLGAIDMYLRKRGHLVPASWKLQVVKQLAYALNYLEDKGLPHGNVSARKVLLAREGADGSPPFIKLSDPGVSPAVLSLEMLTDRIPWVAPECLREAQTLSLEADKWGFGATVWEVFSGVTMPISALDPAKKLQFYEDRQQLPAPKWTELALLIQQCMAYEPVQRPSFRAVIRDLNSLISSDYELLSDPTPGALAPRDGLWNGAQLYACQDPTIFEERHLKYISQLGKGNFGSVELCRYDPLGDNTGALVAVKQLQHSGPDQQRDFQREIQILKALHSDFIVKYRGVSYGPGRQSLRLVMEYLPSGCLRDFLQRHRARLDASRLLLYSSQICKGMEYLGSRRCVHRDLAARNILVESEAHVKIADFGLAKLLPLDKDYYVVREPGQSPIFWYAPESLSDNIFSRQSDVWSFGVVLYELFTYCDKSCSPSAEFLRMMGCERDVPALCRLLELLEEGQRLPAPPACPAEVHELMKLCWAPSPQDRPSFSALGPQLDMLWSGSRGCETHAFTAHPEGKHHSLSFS
# Method: as §1
# TEC = biological target: T10, TEC (Homo sapiens, UniProt P42680); assay: as above; format: biochemical; conditions: radiometric HotSpot, five-dose singlicate, [ATP] = 10 μM
# T10 construct: purchased Reaction Biology Corporation
# T10 sequence (P42680 1-631): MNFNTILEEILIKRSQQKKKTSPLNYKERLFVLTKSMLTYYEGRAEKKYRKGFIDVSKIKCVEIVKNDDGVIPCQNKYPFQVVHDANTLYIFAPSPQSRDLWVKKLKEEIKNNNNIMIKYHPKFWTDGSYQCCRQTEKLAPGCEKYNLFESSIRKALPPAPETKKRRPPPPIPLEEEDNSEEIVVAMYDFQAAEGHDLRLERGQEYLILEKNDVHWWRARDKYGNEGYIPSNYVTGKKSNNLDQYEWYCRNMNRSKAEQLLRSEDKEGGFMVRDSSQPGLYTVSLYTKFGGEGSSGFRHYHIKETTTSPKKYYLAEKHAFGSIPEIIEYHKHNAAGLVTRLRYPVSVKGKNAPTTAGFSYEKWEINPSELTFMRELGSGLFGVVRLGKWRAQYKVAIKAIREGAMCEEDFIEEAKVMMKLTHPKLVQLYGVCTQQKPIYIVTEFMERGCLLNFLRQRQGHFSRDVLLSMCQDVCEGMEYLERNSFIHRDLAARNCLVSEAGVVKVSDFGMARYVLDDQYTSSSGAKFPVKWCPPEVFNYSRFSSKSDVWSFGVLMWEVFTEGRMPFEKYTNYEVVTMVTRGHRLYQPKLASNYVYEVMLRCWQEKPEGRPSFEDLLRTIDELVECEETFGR
# Method: as §1
smiles,measurement,setting,value
C=CC(=O)Nc1cc(C)cc(-n2c(=O)ccc3cnc4cc(-c5ccc(NS(C)(=O)=O)cc5)ccc4c32)c1 [JS25],kinact/KI BMX,BMX,1.9e+07 M⁻¹ s⁻¹
"CN(C)C/C=C/C(=O)Nc1cc2c(Nc3ccc(F)c(Cl)c3)ncnc2cc1O[C@H]1CCOC1 [Afatinib, reference compound]",half-life at 25 µM,glutathione (GSH),45.6 min
"C=CC(=O)Nc1cccc(-c2c[nH]c3ncc(NC(=O)C4CCCC4)cc23)c1 [Compound 12a, N-(3-(3-acrylamidophenyl)-1H-pyrrolo[2,3-b]pyridin-5-yl)cyclopentanecarboxamide]",remaining activity at 0.2 µM,MKK7,100%
same,remaining activity at 0.2 µM,ITK,98.5%
same,IC50,EGFR,158 nM
same,IC50,HER2,612 nM
same,IC50,TXK,13 nM
same,IC50,BLK,52 nM
same,IC50,HER4,106 nM
same,IC50,"JAK3; radiometric HotSpot, five-dose singlicate, [ATP] = 10 μM",1340 nM
same,remaining activity at 0.2 µM,"JAK3; read-out: Residual Activity @ 200 nM, JAK3",94.5%
same,IC50,TEC,31 nM
